ChEMBL document CHEMBL5726785, “TrkA kinase inhibitors, compositions and methods thereof” (2018)

Target: High affinity nerve growth factor receptor (Homo sapiens, UniProt P04629)
Assay: TrkA Receptor : TrkA functional activity was measured using a DiscoverX PathHunter assay. In this assay, U2OS cells are express TrkA receptor as a fusion with the weakly complementing fragment of B-galactosidase, which DiscoverX calls “Prolink (PK)”; additionally, Shc1 is fused with a larger fragment, which is called “Enzyme Acceptor (EA)”. Activation of the TrkA receptor, upon NGF addition, results in the kinase domain being phosphorylated, resulting in subsequent recruitment of Shc1-EA protein. That recruitment results in an active B-galactosidase enzyme that is detected by addition of a chemiluminescent substrate.All reagents were purchased from DiscoverX, except for the receptor agonists (NGF, BDNF, NT3) which were purchased from Peprotech. Cells were expanded and frozen into cryovials (TrkA p75 @ passage 13, 1.5×10^7 cells/vial; TrkC p75 @ passage 11, 1.5×10^7 cells/vial in InVitrogen Recovery Cell Freezing media), and stored in the vapor phase of liquid nitrogen, and thawed immediately before use. Thawed cells were added to a 384-well plate (BD Falcon 384-well white/clear, TC surface 120 uL assay plates (353963), 20 uL of 0.375e6 cells/mL=>7500 cells/well), and allowed to incubate overnight. […]

Sequence of High affinity nerve growth factor receptor (P04629 whole entry, the tested form may be a part): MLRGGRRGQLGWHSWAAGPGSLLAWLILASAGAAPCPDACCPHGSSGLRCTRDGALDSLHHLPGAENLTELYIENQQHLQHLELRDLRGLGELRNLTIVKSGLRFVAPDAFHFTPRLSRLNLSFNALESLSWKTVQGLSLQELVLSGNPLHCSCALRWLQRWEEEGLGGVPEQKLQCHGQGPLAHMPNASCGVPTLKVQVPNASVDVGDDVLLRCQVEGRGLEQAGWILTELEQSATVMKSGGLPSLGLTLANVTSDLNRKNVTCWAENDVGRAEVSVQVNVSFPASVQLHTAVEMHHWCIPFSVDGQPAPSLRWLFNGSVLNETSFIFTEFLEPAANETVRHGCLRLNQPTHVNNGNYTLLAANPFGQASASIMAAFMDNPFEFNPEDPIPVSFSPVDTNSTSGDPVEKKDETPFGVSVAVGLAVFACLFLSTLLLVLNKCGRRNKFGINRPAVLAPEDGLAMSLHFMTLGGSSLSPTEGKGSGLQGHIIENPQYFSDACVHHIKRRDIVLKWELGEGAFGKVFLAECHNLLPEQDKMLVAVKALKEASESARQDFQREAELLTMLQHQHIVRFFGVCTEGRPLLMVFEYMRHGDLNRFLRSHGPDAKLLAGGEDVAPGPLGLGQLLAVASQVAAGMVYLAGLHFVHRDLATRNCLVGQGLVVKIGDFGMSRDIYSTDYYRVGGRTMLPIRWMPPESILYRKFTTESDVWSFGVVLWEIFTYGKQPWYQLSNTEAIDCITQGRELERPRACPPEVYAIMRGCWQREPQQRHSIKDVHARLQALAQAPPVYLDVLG

IC50: 570 nM
SMILES: Cc1ncc(NC(=O)Nc2c(-c3ccccc3)[nH]c3ccccc23)c(-c2ccccc2)n1
